Results taken from PubChem BioAssay AID493002 (Sanford-Burnham Center for Chemical Genomics, 2010).
pIC50: −log10 of the molar value.

Each compound was assayed on S. cerevisiae tim23-1 mutant growth, luminescence (assay: potency against tim23-1 yeast growth – luminescence, uHTS hits, dose response (AID 493002);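 further: yeast grown roughly 22 hours at 25 °C before the luminescence read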).
`Nc1ccc(N=Nc2ccccc2O)c(N)c1` showed a pIC50 of 4.82. `Cc1cccc(CN2C(=O)/C(=C\c3ccc(C(=O)NCCCN4CCN(C)CC4)cc3)Oc3ccccc32)c1` was tested, and the pIC50 was 4.76. For `CCCCCCn1c(=O)c(-c2ccccc2)c(O)c2ccccc21`, the pIC50 was 5.05. `CC1(C)CC(=O)C=C(c2ccc(I)cc2)C1` was tested, and the pIC50 was 4.83. For `CCCCSC1=C(C#N)C(c2ccccc2C)CC(=O)N1` (stereo unspecified), the pIC50 was 4.86. `O=C(/C=C\Nc1cccc(F)c1)c1cccs1` showed a pIC50 of 5.14. Work on `Cc1ccc(C(=O)Nc2nc(C(C)(C)C)cs2)s1` yielded a pIC50 of 4.87. `O=C(c1cccnc1)C1Cc2ccccc2C1=O` (stereo unspecified) showed a pIC50 of 5.00. With `CCOC(=O)NNc1ccc2nonc2c1[N+](=O)[O-]` the pIC50 was 5.18. With `Cc1ccc(NC(=S)NC(=O)C2CC2)cc1Cl` the pIC50 was 5.16. Work on `COc1cc2c3c(c1)C(C)CC(C)(C)N3C(=O)C2=O` (stereo unspecified) yielded a pIC50 of 4.57. For `CCOc1ccc(N=C(C)C2=C(O)c3ccccc3C2=O)cc1`, the pIC50 was 4.95. Work on `CCSc1ncc(/C=N/Nc2ccc(Cl)cc2)n1C` yielded a pIC50 of 5.23. Compound `O=C(c1ccc(-c2nc3ccccc3s2)s1)N1CCOCC1` has a pIC50 of 4.72. With `O=C1NN=C(c2ccc(Br)cc2)CC1c1ccc(Cl)cc1` (stereo unspecified) the pIC50 was 5.01. `CC1CCc2c(sc3nc(C(C)(C)C)nc(N4CCN(C(=O)CCl)CC4)c23)C1` (stereo unspecified) was tested, and the pIC50 was 5.06. With `CCCOc1cccc(C(=O)N/N=C/c2coc3ccccc3c2=O)c1` the pIC50 was 4.87. `O=C(Nc1ccc(OC(F)(F)F)cc1)N1CCN(c2ccnc3cc(Cl)ccc23)CC1` showed a pIC50 of 4.98. For `CC1(C)OC(=O)C(=Cc2ccc[nH]2)C(=O)O1`, the pIC50 was 5.06. In the case of `COc1ccc(S(=O)(=O)NCc2ccc(C)cc2)cc1`, the pIC50 was 4.69. Compound `c1cnc2c(c1)ccc1cccnc12` has a pIC50 of 5.02. `Cc1cc(C(=O)CCl)c(C)n1CCc1ccc(Cl)cc1` showed a pIC50 of 5.43. `CCN(CC)c1ccc(/C=C2/C(=O)ON=C2C)cc1` showed a pIC50 of 4.84. In the case of `Cc1ccc2oc(C(Cl)(Cl)Cl)cc(=O)c2c1`, the pIC50 was 5.36. With `Cc1ccc(Nc2cc(C)c3ccc(O)cc3n2)cc1C` the pIC50 was 4.95. `COc1ccc(NC(=O)Nc2cccc3cccnc23)cc1` was tested, and the pIC50 was 4.40. `CC(C)N=c1scc(-c2ccco2)n1/N=C/c1ccc(O)c(O)c1` showed a pIC50 of 4.92. `Cc1ccc(-c2nnc(N3CCC(C)CC3)c3ccccc23)cc1` was tested, and the pIC50 was 4.86. For `CC(C)CCN1C(=O)c2cccc3c(N)ccc(c23)C1=O`, the pIC50 was 5.04. Work on `COc1cc(/C=C/C(=O)OCC(=O)c2ccc(OC(F)F)cc2)ccc1O` yielded a pIC50 of 4.84. Work on `CC(C)CN(C(=O)c1ccc2c(c1)OCCO2)c1c(N)n(Cc2ccccc2)c(=O)[nH]c1=O` yielded a pIC50 of 4.85. In the case of `COc1ccc(CCN(/C=C2\Sc3ccccc3C2=O)C(C)=O)cc1OC`, the pIC50 was 4.85. With `CN1C(=O)C(=Cc2ccccc2OS(=O)(=O)c2ccccc2)C(=O)N(C)C1=O` the pIC50 was 5.18. Work on `O=C(/C=C/c1ccccc1)NCCc1c[nH]c2ccccc12` yielded a pIC50 of 4.82. `CCOc1cc(/C=C2\SC(N3CCCC(C)C3)=NC2=O)ccc1O` (stereo unspecified) was tested, and the pIC50 was 4.54. With `Cc1ccc2nc(-c3ccc(N)cc3)sc2c1` the pIC50 was 5.00. Work on `Cc1[nH][nH]c(=O)c1C(c1ccc(-c2ccc(Cl)cc2)o1)c1c(C)[nH][nH]c1=O` yielded a pIC50 of 4.89. Work on `COc1ccc(C(=O)Nc2nc3ccccc3s2)c(OC)c1` yielded a pIC50 of 5.23. Work on `NC(=S)NNc1cc(Cl)cc(Cl)c1` yielded a pIC50 of 4.98. `CCOC(=O)c1ccc(NC(=O)CSc2nc(=O)n3cccc(C)c3n2)cc1` showed a pIC50 of 4.89. For `Nc1cccc(-c2nc3ccc(C(=O)c4ccccc4)cc3[nH]2)c1`, the pIC50 was 4.97. With `N#C/C(=C\c1ccc(Cl)cc1)C(=O)NC1CC1` the pIC50 was 5.15. With `CC(C)n1cc(NC(=O)c2cc(-c3ccccc3)on2)cn1` the pIC50 was 5.11. `Cc1ccc(/C=N/NC(=O)c2ccc3c(c2)OCCO3)s1` was tested, and the pIC50 was 4.46. Work on `Cn1c(=O)c(C(=O)Nc2ccccn2)c(O)c2ccccc21` yielded a pIC50 of 4.82. `CCCCCOC(=O)Cc1c(C)nc(-c2ccccc2)[nH]c1=O` showed a pIC50 of 4.88.
